Columns and labels:
lipoamide = compound: NC(=O)CCCCC1CCSS1 [lipoamide]; assay: thermal stability z-score vs DMSO; higher = more thermally stabilized by treatment; conditions: HeLa, lipoamide concentration 100 µM
Description: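 Cellular thermal proteome profiling in HeLa cells. Cells were treated with 100 µM lipoamide for 1 h, with or without 1 mM arsenate for a further 1 h, then heated to ten temperatures (37-66.3 °C), and soluble protein was quantified by TMT mass spectrometry relative to 0.1% DMSO controls. The thermal stability score (sum of log2 fold changes minus the abundance score) was transformed to a z-score; mean of n = 3 experiments.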

potassium arsenate = compound: O=[As]([O-])(O)O.[K+] [potassium arsenate]; assay: as above; conditions: HeLa; arsenate concentration 1 mM
Description: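 Cellular thermal proteome profiling in HeLa cells treated with 1 mM arsenate for 1 h (DMSO pretreatment), heated to ten temperatures (37-66.3 °C). Soluble protein was quantified by TMT mass spectrometry relative to DMSO controls; the thermal stability score was transformed to a z-score; mean of n = 3 experiments.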

[1] = arsenate co-treatment: 1 mM arsenate 1 h
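Further: each temperature applied for 3 min, abundance score taken as mean log2 fold change at the two lowest temperatures, z-score obtained by mean subtraction and division by SD.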

Chain of UniProt O14981 (O14981 whole entry): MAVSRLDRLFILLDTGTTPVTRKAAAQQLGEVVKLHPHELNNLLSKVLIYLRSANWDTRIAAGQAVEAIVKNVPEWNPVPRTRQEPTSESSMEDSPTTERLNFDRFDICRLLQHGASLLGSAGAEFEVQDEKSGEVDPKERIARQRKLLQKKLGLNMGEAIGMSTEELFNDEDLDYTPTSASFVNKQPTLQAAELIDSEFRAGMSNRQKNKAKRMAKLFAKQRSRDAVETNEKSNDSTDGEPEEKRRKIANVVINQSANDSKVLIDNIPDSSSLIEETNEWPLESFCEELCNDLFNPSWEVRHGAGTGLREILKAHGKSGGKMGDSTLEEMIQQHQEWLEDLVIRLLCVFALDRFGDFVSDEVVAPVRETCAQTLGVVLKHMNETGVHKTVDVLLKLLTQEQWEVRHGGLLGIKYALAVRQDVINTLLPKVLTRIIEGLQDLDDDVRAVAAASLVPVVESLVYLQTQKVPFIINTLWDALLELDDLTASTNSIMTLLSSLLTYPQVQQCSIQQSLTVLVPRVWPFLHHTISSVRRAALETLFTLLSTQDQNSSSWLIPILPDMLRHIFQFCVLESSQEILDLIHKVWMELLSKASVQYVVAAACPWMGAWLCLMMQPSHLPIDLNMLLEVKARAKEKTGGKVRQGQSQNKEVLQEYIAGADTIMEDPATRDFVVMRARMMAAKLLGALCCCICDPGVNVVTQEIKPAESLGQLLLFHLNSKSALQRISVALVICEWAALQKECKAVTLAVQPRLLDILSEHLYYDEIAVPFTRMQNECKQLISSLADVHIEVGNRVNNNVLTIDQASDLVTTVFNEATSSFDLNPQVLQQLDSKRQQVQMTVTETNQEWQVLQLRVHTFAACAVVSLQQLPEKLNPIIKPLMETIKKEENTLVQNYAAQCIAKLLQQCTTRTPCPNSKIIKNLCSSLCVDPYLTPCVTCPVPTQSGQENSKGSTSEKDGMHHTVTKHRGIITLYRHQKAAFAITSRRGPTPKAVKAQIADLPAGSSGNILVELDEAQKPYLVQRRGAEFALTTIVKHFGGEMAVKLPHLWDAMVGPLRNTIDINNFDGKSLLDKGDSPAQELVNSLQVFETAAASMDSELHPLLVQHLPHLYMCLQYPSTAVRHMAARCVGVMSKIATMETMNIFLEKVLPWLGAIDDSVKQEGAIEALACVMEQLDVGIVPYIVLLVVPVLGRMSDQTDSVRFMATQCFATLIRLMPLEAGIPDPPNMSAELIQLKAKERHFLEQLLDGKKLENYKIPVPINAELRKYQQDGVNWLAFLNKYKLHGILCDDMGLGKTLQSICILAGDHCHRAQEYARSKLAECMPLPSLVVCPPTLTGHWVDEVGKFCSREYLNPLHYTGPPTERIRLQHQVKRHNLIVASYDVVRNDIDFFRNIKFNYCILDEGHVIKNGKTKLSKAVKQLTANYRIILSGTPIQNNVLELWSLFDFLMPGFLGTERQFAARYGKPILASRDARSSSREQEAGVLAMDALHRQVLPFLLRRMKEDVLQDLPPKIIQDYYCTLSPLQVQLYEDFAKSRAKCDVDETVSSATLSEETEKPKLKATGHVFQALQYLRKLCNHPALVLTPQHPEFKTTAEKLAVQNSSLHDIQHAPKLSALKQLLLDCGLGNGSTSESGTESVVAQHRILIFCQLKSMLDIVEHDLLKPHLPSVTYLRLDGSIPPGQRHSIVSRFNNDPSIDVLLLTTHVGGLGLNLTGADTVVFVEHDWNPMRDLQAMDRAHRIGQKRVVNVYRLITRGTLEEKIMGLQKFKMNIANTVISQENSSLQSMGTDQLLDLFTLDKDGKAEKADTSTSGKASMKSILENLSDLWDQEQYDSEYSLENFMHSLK
Chain of UniProt P41223 (P41223 whole entry): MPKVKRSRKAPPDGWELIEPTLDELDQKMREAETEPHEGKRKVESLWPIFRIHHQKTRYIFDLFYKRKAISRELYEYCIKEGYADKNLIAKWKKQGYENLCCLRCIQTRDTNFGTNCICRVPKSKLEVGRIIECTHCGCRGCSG
Chain of UniProt P35613 (P35613 whole entry): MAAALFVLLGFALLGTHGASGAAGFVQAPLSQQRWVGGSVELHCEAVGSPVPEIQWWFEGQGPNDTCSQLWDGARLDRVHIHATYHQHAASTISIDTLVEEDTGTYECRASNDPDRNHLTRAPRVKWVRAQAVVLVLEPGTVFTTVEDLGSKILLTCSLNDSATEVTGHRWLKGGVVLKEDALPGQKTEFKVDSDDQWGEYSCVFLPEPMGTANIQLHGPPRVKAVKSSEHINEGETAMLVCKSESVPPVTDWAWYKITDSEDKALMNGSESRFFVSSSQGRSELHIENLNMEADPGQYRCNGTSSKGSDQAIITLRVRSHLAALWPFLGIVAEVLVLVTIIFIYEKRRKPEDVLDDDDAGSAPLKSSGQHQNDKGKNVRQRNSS
Chain of UniProt Q8NDZ4 (Q8NDZ4 whole entry): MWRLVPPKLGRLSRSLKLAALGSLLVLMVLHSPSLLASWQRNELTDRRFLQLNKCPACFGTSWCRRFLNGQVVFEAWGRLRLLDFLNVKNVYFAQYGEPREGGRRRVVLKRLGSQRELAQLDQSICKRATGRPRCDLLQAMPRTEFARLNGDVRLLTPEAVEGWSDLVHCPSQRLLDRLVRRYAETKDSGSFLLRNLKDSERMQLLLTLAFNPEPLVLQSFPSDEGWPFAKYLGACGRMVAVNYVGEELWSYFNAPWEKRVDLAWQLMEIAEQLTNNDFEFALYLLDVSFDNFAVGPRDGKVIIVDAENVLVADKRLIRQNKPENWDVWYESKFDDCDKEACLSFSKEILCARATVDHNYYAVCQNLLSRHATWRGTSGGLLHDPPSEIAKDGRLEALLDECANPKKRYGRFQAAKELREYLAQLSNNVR
Chain of UniProt Q9BVC5 (Q9BVC5 whole entry): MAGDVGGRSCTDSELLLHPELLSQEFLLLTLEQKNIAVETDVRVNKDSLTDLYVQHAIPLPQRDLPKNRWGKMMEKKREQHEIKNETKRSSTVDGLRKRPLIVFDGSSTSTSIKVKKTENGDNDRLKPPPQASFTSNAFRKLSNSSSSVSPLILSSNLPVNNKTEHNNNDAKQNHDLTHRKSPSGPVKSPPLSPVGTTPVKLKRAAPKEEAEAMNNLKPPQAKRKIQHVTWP
Chain of UniProt P04003 (P04003 whole entry): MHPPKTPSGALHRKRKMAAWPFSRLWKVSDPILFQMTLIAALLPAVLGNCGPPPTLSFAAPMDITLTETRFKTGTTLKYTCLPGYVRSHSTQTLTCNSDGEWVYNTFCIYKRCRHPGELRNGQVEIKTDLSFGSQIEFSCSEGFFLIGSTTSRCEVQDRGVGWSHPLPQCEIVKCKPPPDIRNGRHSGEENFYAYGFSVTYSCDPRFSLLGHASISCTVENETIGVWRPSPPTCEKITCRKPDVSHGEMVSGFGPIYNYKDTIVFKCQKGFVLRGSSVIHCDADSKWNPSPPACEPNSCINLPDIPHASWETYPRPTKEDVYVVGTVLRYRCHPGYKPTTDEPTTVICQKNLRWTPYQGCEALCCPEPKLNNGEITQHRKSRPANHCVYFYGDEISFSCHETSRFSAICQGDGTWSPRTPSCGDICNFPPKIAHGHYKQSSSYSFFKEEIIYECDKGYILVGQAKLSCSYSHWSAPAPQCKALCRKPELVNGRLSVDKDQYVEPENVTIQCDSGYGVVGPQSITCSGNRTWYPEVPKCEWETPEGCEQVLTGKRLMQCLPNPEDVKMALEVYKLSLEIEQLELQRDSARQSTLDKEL
Chain of UniProt Q07021 (Q07021 whole entry): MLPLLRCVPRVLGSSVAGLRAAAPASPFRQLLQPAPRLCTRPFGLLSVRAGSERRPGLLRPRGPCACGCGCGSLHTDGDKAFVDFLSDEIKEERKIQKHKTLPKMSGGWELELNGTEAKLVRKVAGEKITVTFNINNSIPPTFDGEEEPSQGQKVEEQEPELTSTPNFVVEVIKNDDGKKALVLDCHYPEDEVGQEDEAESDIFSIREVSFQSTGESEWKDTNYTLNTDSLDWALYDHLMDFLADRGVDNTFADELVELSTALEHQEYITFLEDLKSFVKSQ
Chain of UniProt Q9NS00 (Q9NS00 whole entry): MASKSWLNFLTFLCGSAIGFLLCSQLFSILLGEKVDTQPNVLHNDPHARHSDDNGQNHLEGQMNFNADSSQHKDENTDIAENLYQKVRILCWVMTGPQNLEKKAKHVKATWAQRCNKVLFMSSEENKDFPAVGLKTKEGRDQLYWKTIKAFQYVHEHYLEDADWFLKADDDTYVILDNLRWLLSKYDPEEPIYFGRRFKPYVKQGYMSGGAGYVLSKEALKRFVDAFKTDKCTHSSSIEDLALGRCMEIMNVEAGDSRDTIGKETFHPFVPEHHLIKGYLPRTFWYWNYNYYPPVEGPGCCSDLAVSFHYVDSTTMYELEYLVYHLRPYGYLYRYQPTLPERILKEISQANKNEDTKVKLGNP
Chain of UniProt Q9NWV4 (Q9NWV4 whole entry): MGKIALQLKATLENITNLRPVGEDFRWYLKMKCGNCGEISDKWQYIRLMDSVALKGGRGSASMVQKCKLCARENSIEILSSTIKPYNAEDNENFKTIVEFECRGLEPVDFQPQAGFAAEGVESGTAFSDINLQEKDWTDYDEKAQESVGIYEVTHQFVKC
Chain of UniProt Q9H0C5 (Q9H0C5 whole entry): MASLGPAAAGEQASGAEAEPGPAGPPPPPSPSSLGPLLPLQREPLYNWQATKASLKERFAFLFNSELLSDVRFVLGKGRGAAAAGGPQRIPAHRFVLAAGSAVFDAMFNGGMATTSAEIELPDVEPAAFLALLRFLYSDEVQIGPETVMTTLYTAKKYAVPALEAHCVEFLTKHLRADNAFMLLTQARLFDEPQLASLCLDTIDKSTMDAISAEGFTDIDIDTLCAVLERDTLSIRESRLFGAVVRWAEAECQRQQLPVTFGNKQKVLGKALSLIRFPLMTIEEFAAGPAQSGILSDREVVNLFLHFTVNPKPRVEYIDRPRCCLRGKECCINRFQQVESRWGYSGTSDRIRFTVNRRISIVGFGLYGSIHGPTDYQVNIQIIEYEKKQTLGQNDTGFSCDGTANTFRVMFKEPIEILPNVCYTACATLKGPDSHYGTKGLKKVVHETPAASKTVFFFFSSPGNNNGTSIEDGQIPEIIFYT

Target BSDC1 (UniProt Q9NW68) has a thermal stability z-score (lipoamide; [1]) of -0.585, a thermal stability z-score (lipoamide; arsenate co-treatment: none) of -0.361 and a thermal stability z-score (potassium arsenate) of -0.209.
BSG (UniProt P35613) gave a thermal stability z-score (lipoamide; [1]) of 0.714, a thermal stability z-score (lipoamide; arsenate co-treatment: none) of 0.573 and a thermal stability z-score (potassium arsenate) of 0.265.
Target BST2 (UniProt Q10589) has a thermal stability z-score (lipoamide; [1]) of 0.265, a thermal stability z-score (lipoamide; arsenate co-treatment: none) of 0.606 and a thermal stability z-score (potassium arsenate) of 0.172.
BTAF1 (UniProt O14981) showed a thermal stability z-score (lipoamide; [1]) of 0.085, a thermal stability z-score (lipoamide; arsenate co-treatment: none) of 0.175 and a thermal stability z-score (potassium arsenate) of -0.192.
Target BTBD1 (UniProt Q9H0C5) has a thermal stability z-score (lipoamide; [1]) of -0.0349, a thermal stability z-score (lipoamide; arsenate co-treatment: none) of 0.00713 and a thermal stability z-score (potassium arsenate) of 0.0567.
BTBD10 (UniProt Q9BSF8) gave a thermal stability z-score (lipoamide; [1]) of 0.00662, a thermal stability z-score (lipoamide; arsenate co-treatment: none) of 0.0899 and a thermal stability z-score (potassium arsenate) of -0.162.
Target BTF3 (UniProt P20290) has a thermal stability z-score (lipoamide; [1]) of 0.457, a thermal stability z-score (lipoamide; arsenate co-treatment: none) of 0.48 and a thermal stability z-score (potassium arsenate) of 0.076.
With BTF3L4 (UniProt Q96K17) the thermal stability z-score (lipoamide; [1]) was 0.212, the thermal stability z-score (lipoamide; arsenate co-treatment: none) was 0.17 and the thermal stability z-score (potassium arsenate) was -0.154.
For BTN2A1 (UniProt Q7KYR7), the thermal stability z-score (lipoamide; [1]) was -0.659, the thermal stability z-score (lipoamide; arsenate co-treatment: none) was -0.638 and the thermal stability z-score (potassium arsenate) was 0.0455.
For BTN3A2 (UniProt P78410), the thermal stability z-score (lipoamide; [1]) was 0.00462, the thermal stability z-score (lipoamide; arsenate co-treatment: none) was 0.0294 and the thermal stability z-score (potassium arsenate) was -1.15.
Work on BUB1 (UniProt O43683) yielded a thermal stability z-score (lipoamide; [1]) of -0.0469, a thermal stability z-score (lipoamide; arsenate co-treatment: none) of 0.0303 and a thermal stability z-score (potassium arsenate) of 0.029.
BUB1B (UniProt O60566) gave a thermal stability z-score (lipoamide; [1]) of 0.0397, a thermal stability z-score (lipoamide; arsenate co-treatment: none) of 0.232 and a thermal stability z-score (potassium arsenate) of 0.247.
With BUB3 (UniProt O43684) the thermal stability z-score (lipoamide; [1]) was -0.0475, the thermal stability z-score (lipoamide; arsenate co-treatment: none) was -0.134 and the thermal stability z-score (potassium arsenate) was -0.833.
With BUD31 (UniProt P41223) the thermal stability z-score (lipoamide; [1]) was 0.0866, the thermal stability z-score (lipoamide; arsenate co-treatment: none) was 0.568 and the thermal stability z-score (potassium arsenate) was -3.38.
Target BYSL (UniProt Q13895) has a thermal stability z-score (lipoamide; [1]) of -0.197, a thermal stability z-score (lipoamide; arsenate co-treatment: none) of 0.349 and a thermal stability z-score (potassium arsenate) of 0.424.
In the case of BZW1 (UniProt Q7L1Q6), the thermal stability z-score (lipoamide; [1]) is reported as 0.452, the thermal stability z-score (lipoamide; arsenate co-treatment: none) is reported as 0.578 and the thermal stability z-score (potassium arsenate) is reported as 0.483.
BZW2 (UniProt Q9Y6E2) gave a thermal stability z-score (lipoamide; [1]) of 0.428, a thermal stability z-score (lipoamide; arsenate co-treatment: none) of 0.313 and a thermal stability z-score (potassium arsenate) of -0.183.
Work on C1GALT1 (UniProt Q9NS00) yielded a thermal stability z-score (lipoamide; [1]) of -0.00802, a thermal stability z-score (lipoamide; arsenate co-treatment: none) of -0.575 and a thermal stability z-score (potassium arsenate) of -0.0716.
Work on C1GALT1C1 (UniProt Q96EU7) yielded a thermal stability z-score (lipoamide; [1]) of -0.776, a thermal stability z-score (lipoamide; arsenate co-treatment: none) of -0.734 and a thermal stability z-score (potassium arsenate) of 0.1.
Work on C1ORF52 (UniProt Q8N6N3) yielded a thermal stability z-score (lipoamide; [1]) of 0.477, a thermal stability z-score (lipoamide; arsenate co-treatment: none) of 0.0555 and a thermal stability z-score (potassium arsenate) of -0.417.
C1ORF122 (UniProt Q6ZSJ8) was tested, and the thermal stability z-score (lipoamide; [1]) was 1.07, the thermal stability z-score (lipoamide; arsenate co-treatment: none) was 1.18 and the thermal stability z-score (potassium arsenate) was 0.28.
For C1ORF123 (UniProt Q9NWV4), the thermal stability z-score (lipoamide; [1]) was -0.384, the thermal stability z-score (lipoamide; arsenate co-treatment: none) was -0.409 and the thermal stability z-score (potassium arsenate) was -0.929.
C1ORF131 (UniProt Q8NDD1) was tested, and the thermal stability z-score (lipoamide; [1]) was 1.04, the thermal stability z-score (lipoamide; arsenate co-treatment: none) was -0.388 and the thermal stability z-score (potassium arsenate) was -0.733.
C1ORF174 (UniProt Q8IYL3) gave a thermal stability z-score (lipoamide; [1]) of -2.39, a thermal stability z-score (lipoamide; arsenate co-treatment: none) of -1.46 and a thermal stability z-score (potassium arsenate) of -0.845.
Target C1ORF198 (UniProt Q9H425) has a thermal stability z-score (lipoamide; [1]) of -0.254, a thermal stability z-score (lipoamide; arsenate co-treatment: none) of 0.135 and a thermal stability z-score (potassium arsenate) of 0.635.
For C1QBP (UniProt Q07021), the thermal stability z-score (lipoamide; [1]) was -0.549, the thermal stability z-score (lipoamide; arsenate co-treatment: none) was 0.0636 and the thermal stability z-score (potassium arsenate) was -1.28.
For C1QTNF6 (UniProt Q9BXI9), the thermal stability z-score (lipoamide; [1]) was -0.0299, the thermal stability z-score (lipoamide; arsenate co-treatment: none) was 0.334 and the thermal stability z-score (potassium arsenate) was 0.794.
C1S (UniProt P09871) was tested, and the thermal stability z-score (lipoamide; [1]) was 0.0855, the thermal stability z-score (lipoamide; arsenate co-treatment: none) was -0.147 and the thermal stability z-score (potassium arsenate) was 0.0687.
C2CD2 (UniProt Q9Y426) was tested, and the thermal stability z-score (lipoamide; [1]) was -0.506, the thermal stability z-score (lipoamide; arsenate co-treatment: none) was 0.109 and the thermal stability z-score (potassium arsenate) was 0.234.
C2CD5 (UniProt Q86YS7) gave a thermal stability z-score (lipoamide; [1]) of 0.332, a thermal stability z-score (lipoamide; arsenate co-treatment: none) of 0.297 and a thermal stability z-score (potassium arsenate) of -0.133.
C2ORF47 (UniProt Q8WWC4) showed a thermal stability z-score (lipoamide; [1]) of 0.0998, a thermal stability z-score (lipoamide; arsenate co-treatment: none) of -0.181 and a thermal stability z-score (potassium arsenate) of 1.09.
Target C2ORF49 (UniProt Q9BVC5) has a thermal stability z-score (lipoamide; [1]) of 0.426, a thermal stability z-score (lipoamide; arsenate co-treatment: none) of 0.229 and a thermal stability z-score (potassium arsenate) of 0.0813.
Target C3 (UniProt P01024) has a thermal stability z-score (lipoamide; [1]) of -1.67, a thermal stability z-score (lipoamide; arsenate co-treatment: none) of -1.75 and a thermal stability z-score (potassium arsenate) of -0.371.
Target C3ORF58 (UniProt Q8NDZ4) has a thermal stability z-score (lipoamide; [1]) of -0.093, a thermal stability z-score (lipoamide; arsenate co-treatment: none) of -0.000578 and a thermal stability z-score (potassium arsenate) of 0.287.
C4BPA (UniProt P04003) gave a thermal stability z-score (lipoamide; [1]) of -5.7, a thermal stability z-score (lipoamide; arsenate co-treatment: none) of -5.12 and a thermal stability z-score (potassium arsenate) of 1.08.

From the supplement of paper PMC12463676, “Small-molecule dissolution of stress granules by redox modulation benefits ALS models” (Nature Chemical Biology, 2025)
